Source: US20250381277A1, “COMPOSITIONS AND METHODS FOR TREATMENT OF NEUROLOGICAL DISORDERS” (Dana-Farber Cancer Institute, Inc., priority 2022, published 2025)
Entries after “also recorded” stand apart in the source; their conditions may differ.

Experiments:
Format in all cases: cell-based, mouse
[1] = test system: CD11c^+ microglia of 9-mo old OPN-KO.5XFAD mice; test: In vitro microglia assay: impact of OPN-αVβ3 interaction on CD11c^+ microglial TNF-α production; details: 9-mo old OPN-KO.5XFAD microglia, Cilengitide 10 μM 1 h pre-incubation, then rmOPN 12.5 pg/ml, 24 h
Description: (a) Representative flow cytometry plots and quantification of TREM2 mean fluorescence intensity (MFI) in CD11c^+ OPN^+ and CD11c^+ OPN^− microglial subsets of 9-mo old 5XFAD mice. […] Statistical analysis was performed by two-tailed Student's t test. (b) Representative flow cytometry plots of TNF-α and TREM2 expression in CD11c^− OPN^− microglial subset of 9-mo old 5XFAD mice. CD11c^− OPN^− microglia expressed low level of TNF-α and negligible level of TREM2. The plots were representative results from 3 independent experiments. (c) Microglial expression of canonical OPN receptors in 5XFAD mice at different stages of disease. […] The histogram of CD44 and the contour plot of αVβ3 and αVβ5 were the representative results from 3 independent experiments. (d) The impact of OPN-αVβ3 interaction on CD11c^+ microglial production of TNF-α. […] (e) Representative flow cytometry plots and quantification of TREM2 MFI in CD11c^+ microglia of 9-mo old 5XFAD and OPN-KO.5XFAD mice (n=3). […] Two-tailed Student's t test was performed for statistical analysis.
To test the impact of OPN-αVβ3 interaction on CD11c^+ microglial pro-inflammatory response, microglia were enriched by anti-CD11b microbeads (purity >95%, Miltenyi) from 9-mo old OPN-KO.5XFAD mice and were seeded into 12-well plates at 3×10^5 cells/well in conventional microglia culture medium (DMEM-F12 with 10% fetal bovine serum+1% penicillin/streptomycin+10 ng/ml recombinant mouse M-CSF). Microglia were pre-incubated with a selective αVβ3 inhibitor, Cilengitide (10 μM) for 1 h followed by the addition of 12.5 pg/ml recombinant mouse OPN (rmOPN) and cultured for 24 h before analysis of CD11c^+ microglial expression of TNF-α by flow cytometry.

Caspase-1 = test: Microglial inflammasome activation: intracellular Caspase-1 activity (bioluminescent Caspase-Glo 1 assay); details: LPS 100 ng/ml 3 h + Aβ1-42 fibrils 10 μM overnight; microglia from 9-mo 5XFAD and OPN-KO.5XFAD mice; rmOPN 12.5 pg/ml, Cilengitide 10 μM
Description: (§1) Intracellular Caspase-1 activity was measured by bioluminescent assay of microglia from 9-month-old 5XFAD mice. Detection of the specificity of Caspase-1 activity was confirmed by a selective Caspase-1 inhibitor (Ac-YVAD-CHO (SEQ ID NO: 13), 1 μM). Bar plots are representative results from three independent experiments. […] Activation of Caspase-1 and IL1β by provision of rmOPN was blocked following provision of αVβ3 inhibitor to microglia from 9-mo old 5XFAD and OPN-KO.5XFAD mice (n=3). ****p<0.0001, ***p<0.001, **p<0.01, *p<0.05, ns: not significant by one-way ANOVA with Bonferroni's multiple comparisons test. U.D. undetectable.
(§2) In these studies, microglia isolated from 9-mo old 5XFAD and OPN-KO.5XFAD mice were seeded into 96-well plates at 6×10^4 cells/well in conventional microglia culture medium (DMEM-F12 with 10% fetal bovine serum+1% penicillin/streptomycin+10 ng/ml recombinant mouse M-CSF). […] Microglial intracellular Caspase-1 activity was analyzed by the bioluminescent Caspase-Glo® 1 Inflammasome Assay Kit (Promega) per the manufacturer's instruction. […] Culture medium was collected for quantitative determination of microglial […] DuoSet ELISA kit (R&D Systems) according to the manufacturer's instructions.

CD11c^+αVβ3^+ microglia = test: Ki-67 and TNF-α expression in microglia of 9-mo old WT mice incubated with rmOPN or αVβ3 inhibitor (flow cytometry); details: 9-mo old WT mice microglia, 24 h with or without 12.5 μg/ml rmOPN or 10 μM cilengitide
Description: (A) Microglia isolated from P5 and 9-mo old WT, OPN-KO and OPN-i-KI mice were incubated×1 h with […] pHrodo Green-labeled synaptosomes per 1×10^5 cells followed by flow cytometry analysis of CD11c^+ microglial engulfment of synaptosomes. CD11c^+ microglia from P5, but not 9-mo old WT mice, were highly phagocytic for engulfing synaptosomes in vitro. […] (C) CD11c^+ microglia expressed high levels of proliferation marker Ki-67 early in development (P5). OPN-s, but not OPN-i deficiency decreased Ki-67 expression in CD11c^+ microglia (n=3). *p<0.05 by one-way ANOVA with Bonferroni's multiple comparisons test. […] (E) Microglia isolated from 9-mo old WT mice were incubated×24 h with or without 12.5 μg/ml recombinant mouse OPN (rmOPN) or 10 μM αVβ3 inhibitor (cilengitide) followed by flow cytometry analysis of proliferation marker Ki-67. […] (G) Microglia isolated from 9-mo old WT mice were incubated×24 h with or without 12.5 μg/ml recombinant mouse OPN (rmOPN) or 10 μM αVβ3 inhibitor (cilengitide) followed by flow cytometry analysis of TNF-α expression. […] Data are shown as mean±s.e.m.
Microglial staining for flow cytometry analysis. Microglia were stained with Ghost dye Violet 510 (1:1000, Tonbo Biosciences) to exclude dead cells followed by Fc receptor blocking using CD16/CD32 antibody (1:100, BD Biosciences) to avoid non-specific staining. Appropriate microglial surface markers were used for staining, including anti-CD11b (1:100 Biolegend), anti-CD45 (1:100 Biolegend), anti-CD11c (1:50 Biolegend), anti-CD36 (1:100, Biolegend), anti-CD209a (1:100, Biolegend), anti-αV integrin (1:50, Biolegend), anti-β3 integrin (1:50, Biolegend), anti-CD86 (1:100, Biolegend), and anti-MHC II (1:100, Biolegend), followed by fixation and permeabilization for subsequent intracellular staining with anti-OPN (1:10, R&D Systems), anti-TNF-α (1:50, Biolegend) and intranuclear staining with anti-Ki-67 (1:100, Biolegend).

IL-1β = test: Microglial inflammasome activation: IL-1β production (ELISA of culture medium); details: LPS 100 ng/ml 3 h + Aβ1-42 fibrils 10 μM overnight; microglia from 9-mo 5XFAD and OPN-KO.5XFAD mice; rmOPN 12.5 pg/ml, Cilengitide 10 μM
Description: as §1, §2

Compound | TNF-α production by CD11c^+ microglia [1] | microglial intracellular Caspase-1 activity (Caspase-1) | Ki-67 expression in CD11c^+αVβ3^+ microglia (CD11c^+αVβ3^+ microglia) | TNF-α expression in CD11c^+αVβ3^+ microglia (CD11c^+αVβ3^+ microglia) | microglial IL-1β production (IL-1β) | TNF-α production by CD11c^+ microglia ([1]; listed as αVβ3 inhibitor)
rmOPN: recombinant mouse OPN (osteopontin) | induced TNF-α expression; also recorded: Upregulated TNF-α production | substantially increased; also recorded: Activation | enhanced Ki-67 expression | Upregulation of TNF-α expression | substantially increased; also recorded: Activation | –
CC(C)[C@H]1C(=O)N[C@@H](CCCN=C(N)N)C(=O)NCC(=O)N[C@@H](CC(=O)O)C(=O)N[C@H](Cc2ccccc2)C(=O)N1C [Cilengitide] | abolished | blocked | markedly reduced; also recorded: fully abrogated | fully abolished | blocked | fully abrogated
